Assay results from patent US5869479A, “Treatment of upper airway allergic responses” (Schering Corporation, priority 1997, dated 1999).

Columns and labels:
[1] = Blood pressure change from baseline in the cat experiments; assay type: in vivo, cats; conditions: Example 4, phenylpropanolamine 1 mg/Kg
Description: (§1) Adult cats are anesthetized with intraperitoneal injections of sodium pentobarbital. The right femoral artery and vein are cannulated for measurement of blood pressure with a pressure transducer, and for the administration of drugs. The animals are paralyzed with intravenous gallamine triethiodide and subsequently mechanically ventilated with room air, using an animal ventilator. After isolation of the cervical […], a cuffed endotracheal tube is advanced rostrally into the posterior nasopharynx and inflated to form an air-tight seal, allowing continuous measurement of pressure changes within the nasal cavity. The right nasal airway is occluded with dental impression compound, and humidified air is passed through the left nasal airway at about 1.7 liters per minute. By means of pressure transducers, nasal airway pressure and insufflation pressure can be derived and electronically recorded.
(§2) The known histamine releaser "Compound 48/80" (the condensation product of N-methyl-p-methoxyphenethylamine with formaldehyde, sold by Sigma Chemical Company, St. Louis, Mo., USA), as a 1.0 percent solution in 0.9 percent aqueous saline solution, is aerosolized into the air stream for 2 minutes to induce an increased NAR. This effect is used to study the decongestant effects of various test substances, administered to the animals intravenously 10 minutes prior to the introduction of Compound 48/80. These substances include 0.9 percent aqueous saline (normal saline "Vehicle"), phenylpropanolamine hydrochloride at 1.0 mg/Kg of the free drug, thioperamide maleate at 10 mg/Kg of the free drug and chlorpheniramine maleate at 0.8 mg/Kg of the free drug, all of the drug compounds being in solution in 0.9 percent aqueous saline.
Blood pressure data from the experiments of the preceding examples are examined, to determine the effects of certain congestion-preventing treatments.

nasal airway resistance = test: Nasal airway resistance (NAR) in anesthetized cats after aerosolized Compound 48/80 challenge; assay type: in vivo
Description: as §1
as §2, with “saline. […]” for “saline.”

histamine H3 receptor = biological target: T1, histamine H3 receptor (Cavia porcellus, UniProt Q9JI35); test: Guinea pig brain membrane assay, affinity for histamine H3 receptor binding sites (Korte et al.); conditions: Example 5
T1 construct: from tissue; host or cells: guinea pig brain membranes
Description: A particularly useful screening assay measures binding to sites in guinea pig brain membranes. This test is described in detail by Korte et al., "Characterization and Tissue Distribution of H3 Histamine Receptors in Guinea Pigs by N^α -Methylhistamine," in Biochemical and Biophysical Research Communications, Vol. 168, pages 979-986 (1990), and quantifies the displacement of bound radiolabeled N^α -methylhistamine from tissues by candidate compounds. Results are expressed as "Ki " values, in nanoMolar (nM) units, which values can be considered as being dissociation constants for the H3 antagonist on the H3 receptor system, or an index of antagonist affinity for the receptor. The present inventors have evidence that decongestant activity in their invention for a given H3 antagonist concentration can be predicted to increase as the Ki value obtained from the assay for an antagonist decreases. In general, Ki values less than about 200 nM are considered necessary for an agent to be useful as an H3 antagonist in the invention.
The affinity of various histamine H3 receptor antagonists for binding sites is determined by a guinea pig brain membrane assay, according to the procedure of Korte et al., Biochemical and Biophysical Research Communications, Vol. 168, pages 979-986 (1990).

[2] = Example 1, i.v. 10 min before Compound 48/80, phenylpropanolamine 1.0 mg/Kg, thioperamide 10 mg/Kg, chlorpheniramine 0.8 mg/Kg (free drug), vehicle 9.1, baseline 2.6

T1 sequence (Q9JI35 whole entry): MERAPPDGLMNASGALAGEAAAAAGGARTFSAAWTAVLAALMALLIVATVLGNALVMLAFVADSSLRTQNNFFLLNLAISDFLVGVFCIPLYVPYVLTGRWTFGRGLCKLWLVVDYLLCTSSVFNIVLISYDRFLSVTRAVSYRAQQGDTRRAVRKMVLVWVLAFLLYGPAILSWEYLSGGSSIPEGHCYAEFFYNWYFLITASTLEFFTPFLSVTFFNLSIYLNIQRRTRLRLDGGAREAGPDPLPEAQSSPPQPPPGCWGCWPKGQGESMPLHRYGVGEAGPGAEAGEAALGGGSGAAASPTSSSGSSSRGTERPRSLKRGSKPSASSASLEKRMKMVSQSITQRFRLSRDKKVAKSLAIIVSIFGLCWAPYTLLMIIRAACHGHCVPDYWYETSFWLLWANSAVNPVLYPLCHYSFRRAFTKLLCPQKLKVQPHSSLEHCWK

CC(N)C(O)c1ccccc1 (centres unmarked) [Phenylpropanolamine, phenylpropanolamine]
Blood pressure, change from baseline ([1]; i.v., thioperamide 10 mg/Kg + CPA 0.8 mg/kg, vehicle -16): +31 mm Hg
Statistical difference of blood pressure change from vehicle [1]: statistically different from those for the vehicle
Effect on blood pressure (in words) ([1]; thioperamide 10 mg/Kg + CPA 0.8 mg/kg): significantly increases blood pressure
NAR (nasal airway resistance) (nasal airway resistance; [2]): 2.9 centimeters of water/liters pe
Statistical difference of NAR from vehicle (nasal airway resistance; Example 1, phenylpropanolamine 1.0 mg/Kg i.v.): statistically different result from that for the vehicle
Nasal congestion-preventing effect compared with thioperamide + chlorpheniramine combination (nasal airway resistance; Example 4 comment, phenylpropanolamine 1 mg/Kg): approximately equivalent nasal congestion-preventing effect

COc1ccc(C/C(=N\O)C(=O)NCCc2c[nH]cn2)cc1Br [Verongamine, verongamine]
Ki (histamine H3 receptor): > 200 nM
Statistical difference of NAR from vehicle (nasal airway resistance; Example 5, verongamine 10 mg/Kg): not statistically different from that for the vehicle
NAR (nasal airway resistance) (nasal airway resistance; Example 5, verongamine 10 mg/Kg, different vehicle (vehicle 7.8)): 7.3 centimeters of water/liters pe

NC(=NCc1ccc(Cl)cc1)SCCCc1cnc[nH]1 [Clobenpropit, clobenpropit]
Prevention of nasal congestion (in words) (nasal airway resistance; Example 3, clobenpropit alone or with chlorpheniramine 0.8 mg/Kg): does not exhibit significant prevention of nasal congestion
NAR (nasal airway resistance) (nasal airway resistance; Example 3, i.v., clobenpropit 1.0 mg/Kg alone, vehicle 9.1): 5.5 centimeters of water/liters pe

CN(C)CCC(c1ccc(Cl)cc1)c1ccccn1 (centres unmarked) [Chlorpheniramine, chlorpheniramine]
NAR (nasal airway resistance) (nasal airway resistance; [2]): 6.0 centimeters of water/liters pe

S=C(NC1CCCCC1)N1CCC(c2cnc[nH]2)CC1 [Thioperamide, thioperamide]
NAR (nasal airway resistance) (nasal airway resistance; [2]): 6.7 centimeters of water/liters pe

CCOC(=O)N1CCC(=C2c3ccc(Cl)cc3CCc3cccnc32)CC1 [Loratadine, loratadine]
NAR (nasal airway resistance) (nasal airway resistance; Example 6, loratadine 3 mg/Kg, thioperamide 10 mg/Kg, vehicle 30% dimethylsulfoxide, 40% ethanol, 30% normal saline (vehicle 12.6)): 10.2 centimeters of water/liters pe
